Experimental data from patent US11214540B2, “Compositions for treating neurodegenerative diseases” (COGNITION THERAPEUTICS, INC., priority 2017, dated 2022).
Like-named read-outs stand apart in the source and are kept apart here.

What was measured:
[1] = test system: Abeta oligomer-induced membrane trafficking deficits in primary hippocampal neurons; experiment: Membrane Trafficking/Exocytosis (MTT) assay, Abeta oligomer effect on neurons; format: cell-based, rat;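 for EC50 Abeta: compound potency for inhibiting the Abeta oligomer effect on exocytosis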
Protocol: Compounds according to any embodiment described herein, were tested for their ability to inhibit an amyloid beta effect on the cells. The compounds generally were able to inhibit the amyloid beta effect as measured by a membrane trafficking/exocytosis assay (MTT assay). The rationale for this assay was as follows:
The present exocytosis assay was adapted for use with mature primary neuronal cultures grown for 3 weeks in vitro. See WO 2011/106785, which is incorporated herein by reference in its entirety. Abeta oligomers cause a dose-dependent decrease in the amount of intracellular vesicles (puncta) filled with reduced purple formazan as measured via image processing using a Cellomics VTI automated microscopy system. […] Increasing the amount of Abeta oligomers eventually results in overt toxicity. Thus, the concentration of neuroactive Abeta oligomers used in the assay is much lower than that causing cell death. […] When configured in this manner, the assay is able to detect compounds that inhibit nonlethal effects of Abeta oligomer whether these compounds act via disruption of oligomers, inhibition of oligomer binding to neurons, or counteraction of signal transduction mechanisms of action initiated by oligomer binding.
Primary hippocampal neurons from E18 Sprague-Dawley rat embryos were plated at optimized concentrations in 384 well plates in NB media (Invitrogen). Neurons were maintained in cultures for 3 weeks, with twice weekly feeding of NB media with N2 supplement (Invitrogen).
A test compound was added to cells at concentrations ranging from 100 uM to 0.001 nM followed by addition of vehicle or Abeta oligomer preparations (3 μM total Abeta protein concentration), and incubated for 1 to 24 hr at 37° C. in 5% CO2. MTT reagent (3-(4,5-dimethylthizaol-2yl)-2,5diphenyl tetrazolium bromide) (Roche Molecular Biochemicals) was reconstituted in phosphate buffered saline to 5 mg/mL. 10 μL of MTT labeling reagent is added to each well and incubated at 37° C. for 1 h, then imaged. Exocytosis was assessed by automated microscopy and image processing to quantify the amount of endocytosed and exocytosed formazan.
Each assay plate was formatted so that compounds are tested with and without Abeta oligomer on each plate. This design eliminates toxic or metabolically active compounds early on in the screening cascade (at the level of the primary screen). Reduced formazan was first visible in intracellular vesicles. Eventual formazan exocytosis was accelerated via Abeta oligomers.
Human amyloid peptide 1-42 was obtained from a number of commercial vendors such as California Peptide, with lot-choice contingent upon quality control analysis. Quality controls of oligomer preparations consist of Westerns to determine oligomer size ranges and relative concentrations, and the MTT assay to confirm exocytosis acceleration without toxicity. Toxicity was monitored in each image-based assay via quantification of nuclear morphology visualized with the DNA binding blue dye DAPI (Invitrogen). Nuclei that are fragmented are considered to be in late stage apoptosis (Majno and Joris '95) and the test would be rejected. Peptide lots producing unusual peptide size ranges or significant toxicity at a standard 1.5 μM concentration on neurons would also be rejected.
Data handling and analysis were accomplished by Cellomics VTI image analysis software and STORE automated database software. Because of the low dynamic range and neuronal well-to-well variability after three weeks in culture, statistical comparisons are made via pairwise Tukey-Kramer analysis to determine the significance of the separation between compound+Abeta oligomers from Abeta alone, and between compound alone from vehicle. The ability of mature primary neurons to more closely approximate the electrophysiologically mediated signal transduction network of the adult brain justifies this screening strategy. […]

log P = format: physicochemical
Description: The term “log P” refers to the partition coefficient of a compound. The partition coefficient is the ratio of concentrations of un-ionized compound in each of two solution phases, for example, octanol and water. To measure the partition coefficient of ionizable solute compounds, the pH of the aqueous phase is adjusted such that the predominant form of the compound is un-ionized. The logarithm of the ratio of concentrations of the un-ionized solute compound in the solvents is called log P. The log P is a measure of lipophilicity. For example, log Poct/wat=log([solute]octanol/[solute]un-ionized,water).
Combined Results for particular compounds described herein, with respect to log P, membrane trafficking (uM), sigma-2 receptor affinity, sigma-1 receptor affinity microsomal stability in mouse liver microsomes (MLM) (t1/2, min), t1/2 normalized to CT)10914 and in vitro toxicity potassium channel hERG (IC50, nM) are provided in Table 1: […]

[2] = membrane trafficking, read-out: EC50 Abeta

Molecule	log P (log P)	EC50 [1, 2]	also measured
COc1cc(CCC(C)NCc2ccc(C(F)(F)F)cc2)ccc1O (centres unmarked) [4-(3-(4-(trifluoromethyl)benzylamino)butyl)-2-methoxyphenol, reference compound]	–	–	effect on membrane trafficking deficits induced by AD brain-derived Abeta oligomers ([1]; AD brain-derived Abeta oligomers): eliminates the membrane trafficking deficits; effect on trafficking when dosed in the absence of Abeta ([1]; substance alone, no Abeta oligomer): does not affect trafficking
COc1ccc(C(C)(C)CC(C=C(C)C)N2CCC(C(C)C)CC2)cc1 (centres unmarked) [Compound 86]	6.37	0.22 µM	–
CC(C)=CC(CC(C)(C)c1ccc(Cl)cc1)N1CCC(C(C)C)CC1 (centres unmarked) [Compound 87]	7.13	20 µM	–
CC(C)=CC(CC(C)(C)c1ccc(Cl)cc1)N1CCC(c2ccnc(N(C)C)c2)CC1 (centres unmarked) [Compound 90]	7.02	20 µM	–
CC(C)=CC(CCc1ccc(F)cc1)N1CCOCC1 (centres unmarked) [Compound 91]	3.99	20 µM	–
CC(C)=CC(CCc1ccc(F)cc1)N1CCCCC1 (centres unmarked) [Compound 92]	5.06	20 µM	–
COc1ccc(C(C)(C)CC(NCC2CCOCC2)c2ccccc2)cc1 (centres unmarked) [Compound 115]	4.9	20 µM	–
CC(C)=CC(CC(C)(C)c1ccc(Cl)cc1)N1CCC(C(F)(F)F)CC1 (centres unmarked) [Compound 123]	6.67	0.3 µM	–
CC(C)=CC(CC(C)(C)c1ccc(F)cc1)N1CCC(Oc2ccccc2)CC1 (centres unmarked) [Compound 124]	6.45	0.2 µM	–
CC(C)=CC(CC(C)(C)c1ccc(F)cc1)N1CCC(N2CCCC2)CC1 (centres unmarked) [Compound 125]	5.23	0.25 µM	–
CC(C)=CC(CC(C)(C)c1ccc(C(F)(F)F)cc1)N1CCC(Oc2ccccc2)CC1 (centres unmarked) [Compound 128]	7.19	20 µM	–
CC(C)=CC(CC(C)(C)c1ccc(C(F)(F)F)cc1)N1CCC(N2CCCC2)CC1 (centres unmarked) [Compound 130]	5.97	0.3 µM	–
CC(C)=CC(CC(C)(C)c1ccc(F)cc1)N1CCC(C)(C)CC1 (centres unmarked) [Compound 131]	6.24	20 µM	–
CC(C)=CC(CC(C)(C)c1ccc(Cl)cc1)N1CCC(Oc2ccccc2)CC1 (centres unmarked) [Compound 132]	6.91	20 µM	–
CC(C)=CC(CC(C)(C)c1ccc(F)cc1)N1CCC(N2CCCCC2)CC1 (centres unmarked) [Compound 133]	5.68	2.2 µM	–
CC(C)=CC(CC(C)(C)c1ccc(F)cc1)N1CCC(F)CC1 (centres unmarked) [Compound 134]	5.01	20 µM	–
CC(C)=CC(CC(C)(C)c1ccc(Cl)cc1)N1CCC(N2CCCC2)CC1 (centres unmarked) [Compound 135]	5.69	20 µM	–
CC(C)=CC(CC(C)(C)c1ccc(C(F)(F)F)cc1)N1CCC(N2CCOCC2)CC1 (centres unmarked) [Compound 137]	5.34	0.15 µM	–
CC(C)=CC(CC(C)(C)c1ccc(Cl)cc1)N1CCC(N2CCOCC2)CC1 (centres unmarked) [Compound 138]	5.07	0.45 µM	–
COCCCC1CCN(C(C=C(C)C)CC(C)(C)c2ccc(F)cc2)CC1 (centres unmarked) [Compound 139]	6.03	20 µM	–
COCCCC1CCN(C(C=C(C)C)CC(C)(C)c2ccc(N3CCOCC3)cc2)CC1 (centres unmarked) [Compound 140]	5.78	20 µM	–
CC(C)=CC(CC(C)(C)c1ccc(C(F)(F)F)cc1)N1CCC(F)CC1 (centres unmarked) [Compound 141]	5.74	1.6 µM	–
COC1CCN(C(C=C(C)C)CC(C)(C)c2ccc(Cl)cc2)CC1 (centres unmarked) [Compound 142]	5.22	20 µM	–
CC(C)=CC(CC(C)(C)c1ccc(N2CCOCC2)cc1)N1CCC(C(F)(F)F)CC1 (centres unmarked) [Compound 143]	5.96	20 µM	–

Molecule	log P (log P)	EC50 [1, 2]	also measured
CC(C)=CC(CC(C)(C)c1ccc(N2CCOCC2)cc1)N1CCC(CCO)CC1 (centres unmarked) [Compound 144]	4.69	20 µM	–
COC1CCN(C(C=C(C)C)CC(C)(C)c2ccc(F)cc2)CC1 (centres unmarked) [Compound 145]	4.76	20 µM	–
CC(C)=CC(CC(C)(C)c1ccc(Cl)cc1)N1CCC(N2CCCCC2)CC1 (centres unmarked) [Compound 146]	6.14	0.025 µM	–
CC(C)=CC(CC(C)(C)c1ccc(N2CCOCC2)cc1)N1CCC(C2CCOCC2)CC1 (centres unmarked) [Compound 149]	5.59	20 µM	–
CC(C)=CC(CC(C)(C)c1ccc(N2CCOCC2)cc1)N1CCC(O)CC1 (centres unmarked) [Compound 150]	3.86	20 µM	–
CC(C)=CC(CC(C)(C)c1ccc(F)cc1)N1CCN(C(=O)C2CC2)CC1 (centres unmarked) [Compound 151]	4.65	20 µM	–
CC(C)=CC(CC(C)(C)c1ccc(Cl)cc1)N1CCN(C(=O)C2CC2)CC1 (centres unmarked) [Compound 152]	5.11	0.26 µM	–
CC(C)=CC(CC(C)(C)c1ccc(F)cc1)N1CCN(C(=O)c2ccccc2)CC1 (centres unmarked) [Compound 153]	5.73	0.5 µM	–
CC(C)=CC(CC(C)(C)c1ccc(Cl)cc1)N1CCN(S(C)(=O)=O)CC1 (centres unmarked) [Compound 156]	3.83	0.34 µM	–
CC(C)=CC(CC(C)(C)c1ccc(Cl)cc1)N1CCC(OC(C)C)CC1 (centres unmarked) [Compound 158]	5.99	2.88 µM	–
CC(C)=CC(CC(C)(C)c1ccc(F)cc1)N1CCC(CCOC(C)C)CC1 (centres unmarked) [Compound 159]	6.36	10 µM	–
CC(C)=CC(CC(C)(C)c1ccc(Cl)cc1)N1CCC(CCOC(C)C)CC1 (centres unmarked) [Compound 160]	6.82	15 µM	–
CC(C)=CC(CC(C)(C)c1ccc(C(F)(F)F)cc1)N1CCN(S(C)(=O)=O)CC1 (centres unmarked) [Compound 161]	4.1	0.27 µM	–
COCCOCCC1CCN(C(C=C(C)C)CC(C)(C)c2ccc(Cl)cc2)CC1 (centres unmarked) [Compound 162]	6	15 µM	–
COCCOCCC1CCN(C(C=C(C)C)CC(C)(C)c2ccc(F)cc2)CC1 (centres unmarked) [Compound 163]	5.54	15 µM	–
CCCCC1(OC(=O)NC(C)C)CCN(C(C=C(C)C)CC(C)(C)c2ccc(F)cc2)CC1 (centres unmarked) [Compound 226]	6.91	1.25 µM	–
COC[C@H]1CCCN1C(C)CC(C)(C)c1ccc(Cl)cc1 (some centres unmarked) [Compound 253]	4.67	0.25 µM	–
CC(CC(C)(C)c1ccc(Cl)cc1)N1CCC(O)C1 (centres unmarked) [Compound 255]	–	15 µM	–
COc1cc(CCC(C)(C)N2Cc3cccc(C(=O)N4CCN(C(=O)Oc5ccccc5)CC4)c3C2)ccc1O [Compound 256]	5.01	15 µM	–
CC(C)=C[C@H](CC(C)(C)c1ccc(C(F)(F)F)cc1)N1CCC(C2CCOCC2)CC1 [Compound 261]	6.58	0.73 µM	–
COCCCC1CCN([C@@H](C=C(C)C)CC(C)(C)c2ccc(Cl)cc2)CC1 [Compound 292]	6.49	1.6 µM	–
CC(C)=C[C@@H](CC(C)(C)c1ccc(C(F)(F)F)cc1)N1CCC(C2CCOCC2)CC1 [Example 262]	–	–	logP (log P; octanol/water): 6.58; EC50 ([1]; Rattus norvegicus, Hippocampal neuron, membrane trafficking, read-out: EC50 Abeta): 1.85 µM
Synthetic Abeta oligomers: Abeta 1-42 oligomers made according to published methods, used as positive controls [reference compound]	–	–	EC50 ([1]; Abeta oligomers dosed alone on neurons, read-out: EC50 in the membrane trafficking assay): 0.82 µM
